Measured values taken from patent US20260209213A1, “SELECTIVE ANGIOTENSIN II COMPOUNDS” (VICORE PHARMA AB, priority 2023, published 2026).
Like-named read-outs stand apart in the source and are kept apart here. Blank lines part the entries; values can stand above or below the compound they belong to.

Legend:
Format in all cases: in vitro ADME
[1] = Metabolic stability in pooled human liver microsomes; conditions: pooled human liver microsomes 0.5 mg/mL, 1 μM compound, 37° C.
Procedure: Pooled human liver microsomes in PBS at a concentration of 0.5 mg/mL was incubated with or without 1 mM NADPH for 70 min at 37° C. Test compound was added after 10 minutes to a final concentration of 1 μM. Samples were withdrawn at 0, 5, 15 and 60 minutes and added to test tubes containing acetonitrile, to stop the reaction, and with terfenadine, used as internal standard. After centrifugation at 10 000×g for 5 minutes the supernatant was diluted 1:1 with 1% formic acid. Samples were separated on a reverse phase column and detected by triple quadrupole MSMS (Agilant model 6540). The concentration of the parent compound at the different time points was measured with an external standard curve using terfenadine as internal standard and the initial metabolic rate in the presence or absence of NADPH calculated.

CYP3A4&5 = experiment: CYP inhibition in human liver microsomes (testosterone); conditions: probe testosterone, substrate testosterone, read-out: CYP3A4&5 testosterone Inh %
Procedure: (§1) The following substrates were used; CYP1 Å phenacetin, […] bupropion, CYP2C8 paclitaxel and amodiaquine, CYP2C9 diclofenac, CYP2C19 omeprazole, CYP2D6 dextromethorphan, CYP3 Å midazolam and testosterone.
(§2) At the end of the incubation, the formation of metabolite was monitored by HPLC-MS/MS as the peak area response.

CYP2C9 [2] = target: T1, CYP2C9 (Homo sapiens, UniProt P11712); experiment: CYP inhibition found during development of C21
CYP3A4 [3] = target: T2, CYP3A4 (Homo sapiens, UniProt P08684); experiment: CYP inhibition found during development of C21
[4] = Metabolic hydrolysis found during development of C21
CYP1A2 = target: T3, CYP1A2 (Homo sapiens, UniProt P05177); experiment: in vitro; conditions: human liver microsomes, substrate phenacetin, read-out: CYP1A2 Inh %
T3 construct: using isoform-specific substrates incubated with human liver microsomes; tissue Eurofins protocol ITEMG232; host or cells: human liver microsomes
Procedure: as §1, §2

CYP2B6 = target: T4, CYP2B6 (Homo sapiens, UniProt P20813); experiment: CYP inhibition in human liver microsomes; conditions: probe bupropion, substrate bupropion, read-out: CYP2B6 Inh %
T4 construct: using isoform-specific substrates incubated with human liver microsomes; tissue Eurofins protocol ITEMG232; host or cells: human liver microsomes
T4 sequence (P20813 1-491): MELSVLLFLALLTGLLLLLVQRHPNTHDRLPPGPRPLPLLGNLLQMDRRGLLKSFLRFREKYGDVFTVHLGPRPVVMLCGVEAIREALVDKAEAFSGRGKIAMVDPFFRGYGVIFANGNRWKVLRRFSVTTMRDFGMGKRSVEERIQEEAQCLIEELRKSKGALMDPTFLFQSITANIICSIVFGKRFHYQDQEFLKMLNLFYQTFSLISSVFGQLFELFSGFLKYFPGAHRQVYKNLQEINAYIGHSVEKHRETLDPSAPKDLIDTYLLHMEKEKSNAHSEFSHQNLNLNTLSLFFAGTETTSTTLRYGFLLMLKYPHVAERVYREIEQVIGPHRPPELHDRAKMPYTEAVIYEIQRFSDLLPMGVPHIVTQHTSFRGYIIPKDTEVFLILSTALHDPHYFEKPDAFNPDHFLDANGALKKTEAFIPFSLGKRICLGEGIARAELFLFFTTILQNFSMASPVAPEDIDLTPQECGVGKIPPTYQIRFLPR
Procedure: as §1, §2

CYP2C19 = target: T5, CYP2C19 (Homo sapiens, UniProt P33261); experiment: CYP inhibition in human liver microsomes; conditions: probe omeprazole, substrate omeprazole, read-out: CYP2C19 Inh %
T5 construct: using isoform-specific substrates incubated with human liver microsomes; tissue Eurofins protocol ITEMG232; host or cells: human liver microsomes
Procedure: as §1, §2

CYP2C8 = target: T6, CYP2C8 (Homo sapiens, UniProt P10632); experiment: CYP inhibition in human liver microsomes; conditions: probe paclitaxel and amodiaquine, substrates paclitaxel and amodiaquine, read-out: CYP2C8 Inh %
T6 construct: using isoform-specific substrates incubated with human liver microsomes; tissue Eurofins protocol ITEMG232; host or cells: human liver microsomes
T6 sequence (P10632 1-490): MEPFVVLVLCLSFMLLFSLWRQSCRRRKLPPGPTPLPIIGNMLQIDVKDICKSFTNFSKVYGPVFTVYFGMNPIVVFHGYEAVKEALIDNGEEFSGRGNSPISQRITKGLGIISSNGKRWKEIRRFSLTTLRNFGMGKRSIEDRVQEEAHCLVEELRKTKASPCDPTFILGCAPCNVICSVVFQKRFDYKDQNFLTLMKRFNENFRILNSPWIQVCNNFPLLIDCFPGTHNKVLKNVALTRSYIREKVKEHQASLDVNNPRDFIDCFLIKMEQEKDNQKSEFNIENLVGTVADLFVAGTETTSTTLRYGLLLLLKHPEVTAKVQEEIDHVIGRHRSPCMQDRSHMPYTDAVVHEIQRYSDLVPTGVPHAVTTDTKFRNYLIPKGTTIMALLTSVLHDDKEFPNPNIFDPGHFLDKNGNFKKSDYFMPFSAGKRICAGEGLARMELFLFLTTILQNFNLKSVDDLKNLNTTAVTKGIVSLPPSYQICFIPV
Procedure: as §1, §2

CYP2D6 = target: T7, CYP2D6 (Homo sapiens, UniProt P10635); experiment: CYP inhibition in human liver microsomes; conditions: probe dextromethorphan, substrate dextromethorphan, read-out: CYP2D6 Inh %
T7 construct: tissue Eurofins protocol ITEMG232; host or cells: human liver microsomes
Procedure: as §1, §2

CYP2C9 [5] = target: T1, CYP2C9; experiment: CYP inhibition in human liver microsomes; design: using isoform-specific substrates incubated with human liver microsomes; tissue Eurofins protocol ITEMG232; host or cells: human liver microsomes; conditions: probe diclofenac, substrate diclofenac, read-out: CYP2C9 Inh %
Procedure: as §1, §2

CYP3A4 [6] = target: T2, CYP3A4; experiment: CYP inhibition in human liver microsomes (midazolam); design: using isoform-specific substrates incubated with human liver microsomes; tissue Eurofins protocol ITEMG232; host or cells: human liver microsomes; conditions: probe midazolam, substrate midazolam, read-out: CYP3A4 midazolam Inh %
Procedure: as §1, §2

[7] = with 1 mM NADPH, read-out: T1/2, + NaDPH
[8] = without NADPH, read-out: T1/2, no NaDPH

T1 sequence (P11712 whole entry): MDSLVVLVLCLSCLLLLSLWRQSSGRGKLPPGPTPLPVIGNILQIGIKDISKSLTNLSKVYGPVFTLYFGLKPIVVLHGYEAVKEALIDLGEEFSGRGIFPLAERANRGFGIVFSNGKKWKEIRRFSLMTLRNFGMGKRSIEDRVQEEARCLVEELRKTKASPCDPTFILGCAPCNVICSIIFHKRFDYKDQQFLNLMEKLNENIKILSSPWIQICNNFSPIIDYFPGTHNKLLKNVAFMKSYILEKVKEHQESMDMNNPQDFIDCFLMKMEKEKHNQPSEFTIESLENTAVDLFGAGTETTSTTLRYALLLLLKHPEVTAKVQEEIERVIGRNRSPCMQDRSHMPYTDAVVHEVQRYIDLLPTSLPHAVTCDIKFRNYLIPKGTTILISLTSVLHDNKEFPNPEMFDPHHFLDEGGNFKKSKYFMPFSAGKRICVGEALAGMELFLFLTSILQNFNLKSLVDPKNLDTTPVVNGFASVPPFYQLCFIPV
T2 sequence (P08684 whole entry): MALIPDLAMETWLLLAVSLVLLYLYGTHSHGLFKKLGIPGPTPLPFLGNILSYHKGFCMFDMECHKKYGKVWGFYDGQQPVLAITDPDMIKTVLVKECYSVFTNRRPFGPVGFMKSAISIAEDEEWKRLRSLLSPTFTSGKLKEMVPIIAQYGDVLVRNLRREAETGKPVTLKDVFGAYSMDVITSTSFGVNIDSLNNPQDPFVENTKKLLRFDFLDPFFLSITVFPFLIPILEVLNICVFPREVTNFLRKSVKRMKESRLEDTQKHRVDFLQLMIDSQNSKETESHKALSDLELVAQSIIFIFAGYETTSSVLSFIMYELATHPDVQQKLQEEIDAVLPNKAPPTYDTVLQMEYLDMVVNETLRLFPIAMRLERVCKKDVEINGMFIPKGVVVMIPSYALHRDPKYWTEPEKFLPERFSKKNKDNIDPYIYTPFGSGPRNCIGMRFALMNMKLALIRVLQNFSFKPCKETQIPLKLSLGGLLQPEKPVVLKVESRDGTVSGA
T7 sequence (P10635 whole entry): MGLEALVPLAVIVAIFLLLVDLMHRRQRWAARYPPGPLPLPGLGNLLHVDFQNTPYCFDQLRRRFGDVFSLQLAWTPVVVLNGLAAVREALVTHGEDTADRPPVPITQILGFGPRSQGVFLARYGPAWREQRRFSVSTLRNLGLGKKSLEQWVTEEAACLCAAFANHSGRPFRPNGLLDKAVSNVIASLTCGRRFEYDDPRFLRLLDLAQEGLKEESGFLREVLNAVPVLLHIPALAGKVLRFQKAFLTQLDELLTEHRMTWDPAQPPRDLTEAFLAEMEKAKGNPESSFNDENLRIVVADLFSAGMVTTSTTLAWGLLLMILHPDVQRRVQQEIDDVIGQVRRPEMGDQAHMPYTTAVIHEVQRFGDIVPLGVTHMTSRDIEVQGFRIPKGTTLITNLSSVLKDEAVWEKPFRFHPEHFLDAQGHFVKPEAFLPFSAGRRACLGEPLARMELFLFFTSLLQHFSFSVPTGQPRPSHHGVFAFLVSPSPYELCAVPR
T5 sequence (P33261 whole entry, canonical isoform): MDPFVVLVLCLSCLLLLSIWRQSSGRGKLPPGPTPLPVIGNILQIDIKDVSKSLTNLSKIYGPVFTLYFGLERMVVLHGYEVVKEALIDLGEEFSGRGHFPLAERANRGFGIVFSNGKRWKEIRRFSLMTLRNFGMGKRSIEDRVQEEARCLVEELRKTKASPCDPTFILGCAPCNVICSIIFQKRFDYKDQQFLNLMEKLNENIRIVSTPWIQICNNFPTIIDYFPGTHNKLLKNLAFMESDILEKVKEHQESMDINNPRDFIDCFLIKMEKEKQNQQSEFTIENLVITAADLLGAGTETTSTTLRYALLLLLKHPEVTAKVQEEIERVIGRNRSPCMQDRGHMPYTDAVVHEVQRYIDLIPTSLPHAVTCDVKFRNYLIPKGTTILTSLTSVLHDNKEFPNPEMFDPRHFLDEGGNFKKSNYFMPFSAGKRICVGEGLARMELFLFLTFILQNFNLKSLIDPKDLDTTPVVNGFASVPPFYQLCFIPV
T3 sequence (P05177 whole entry, canonical isoform): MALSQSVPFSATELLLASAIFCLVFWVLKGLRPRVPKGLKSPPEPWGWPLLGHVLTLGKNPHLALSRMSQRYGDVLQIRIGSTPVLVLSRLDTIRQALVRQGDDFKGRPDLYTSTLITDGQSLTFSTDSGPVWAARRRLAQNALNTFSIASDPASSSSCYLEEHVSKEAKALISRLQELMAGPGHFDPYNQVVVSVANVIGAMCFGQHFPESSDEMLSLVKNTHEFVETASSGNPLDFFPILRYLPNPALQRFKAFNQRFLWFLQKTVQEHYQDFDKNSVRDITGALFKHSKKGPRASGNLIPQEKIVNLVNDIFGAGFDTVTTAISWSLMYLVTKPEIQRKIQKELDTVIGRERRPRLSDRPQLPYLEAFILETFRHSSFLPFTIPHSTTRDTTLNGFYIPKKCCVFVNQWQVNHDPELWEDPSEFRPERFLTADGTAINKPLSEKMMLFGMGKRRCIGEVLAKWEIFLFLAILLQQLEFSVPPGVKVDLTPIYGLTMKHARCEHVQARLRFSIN

half-life at 1 μM [1, 7]: 1 h
half-life at 1 μM [1, 8]: > 1 h
SMILES: Cc1nccn1Cc1ccc(-c2cc(CC(C)C)sc2S(=O)(=O)Nc2ccccn2)cc1Cl [Example 2, 3-[3-Chloro-4-[(2-methylimidazol-1-yl)methyl]phenyl]-5-isobutyl-N-(2-pyridyl)thiophene-2-sulfonamide]

inhibition at 10 µM (CYP3A4&5): 94%
inhibition of CYP 2C9 (in words) (CYP2C9 [2]): potent inhibitor
inhibition of CYP 3A4 (in words) (CYP3A4 [3]): potent inhibitor
SMILES: CCCCOC(=O)NS(=O)(=O)c1sc(CC(C)C)cc1-c1ccc(Cn2ccnc2)cc1 [Example C21, N-butyloxycarbonyl-3-(4-imidazol-1-ylmethylphenyl)-5-isobutylthiophene-2-sulfon-amide]
metabolic hydrolysis (in words) [4]: rapidly hydrolysed to an inactive sulfonamide metabolite

half-life at 1 μM [1, 7]: 0.883 h
half-life at 1 μM [1, 8]: > 1 h
SMILES: Cc1cc(-c2cc(CC(C)C)sc2S(=O)(=O)Nc2ccccn2)ccc1Cn1ccnc1C [Example 3, 5-Isobutyl-3-[3-methyl-4-[(2-methylimidazol-1-yl)methyl]phenyl]-N-(2-pyridyl)thiophene-2-sulfonamide]

half-life at 1 μM [1, 7]: > 1 h
half-life at 1 μM [1, 8]: > 1 h
inhibition at 10 µM (CYP1A2): 12.3%
inhibition at 10 µM (CYP2B6): 22.4%
inhibition at 10 µM (CYP2C19): 72.7%
inhibition at 10 µM (CYP2C8): 33.9%
inhibition at 10 µM (CYP2D6): 28.3%
inhibition at 10 µM (CYP3A4&5): 40.1%
inhibition at 10 µM (CYP2C9 [5]): 49.4%
inhibition at 10 µM (CYP3A4 [6]): 40.1%
SMILES: Cc1nccn1Cc1ccc(-c2cc(CC(C)C)sc2S(=O)(=O)Nc2ncccn2)cc1Cl [Example 1, 3-[3-Chloro-4-[(2-methylimidazol-1-yl)methyl]phenyl]-5-isobutyl-N-pyrimidin-2-yl-thiophene-2-sulfonamide]
